Target: T1, human RXFP1 (Homo sapiens, UniProt Q9HBX9)
T1 construct: expressed in transfected cells
T1 sequence (Q9HBX9 1-757): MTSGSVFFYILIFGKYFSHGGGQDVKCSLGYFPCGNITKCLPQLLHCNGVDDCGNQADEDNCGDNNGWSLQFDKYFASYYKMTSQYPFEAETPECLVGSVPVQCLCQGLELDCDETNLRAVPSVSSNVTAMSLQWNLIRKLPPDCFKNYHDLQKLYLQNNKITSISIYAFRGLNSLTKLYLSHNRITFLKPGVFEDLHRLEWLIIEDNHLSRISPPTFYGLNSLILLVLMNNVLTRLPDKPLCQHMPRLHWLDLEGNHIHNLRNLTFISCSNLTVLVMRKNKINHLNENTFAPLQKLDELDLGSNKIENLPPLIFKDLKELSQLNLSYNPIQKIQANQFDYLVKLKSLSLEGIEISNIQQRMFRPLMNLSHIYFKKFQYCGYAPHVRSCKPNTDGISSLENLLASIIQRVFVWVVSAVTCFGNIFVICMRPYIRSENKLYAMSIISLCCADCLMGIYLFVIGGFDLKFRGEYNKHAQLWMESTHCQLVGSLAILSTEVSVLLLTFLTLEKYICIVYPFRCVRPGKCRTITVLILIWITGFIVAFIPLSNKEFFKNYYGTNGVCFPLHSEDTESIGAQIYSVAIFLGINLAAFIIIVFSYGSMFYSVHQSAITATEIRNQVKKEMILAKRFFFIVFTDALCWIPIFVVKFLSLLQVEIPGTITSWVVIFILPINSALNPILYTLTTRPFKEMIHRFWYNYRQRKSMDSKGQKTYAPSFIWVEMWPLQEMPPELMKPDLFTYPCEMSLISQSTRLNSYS
Assay: human RXFP1 (hRXFP1) HEK293 cAMP assay (HTRF)
Assay type: cell-based
Conditions: HEK293 cells stably expressing human RXFP1, 30 min at room temperature
Outline: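 Intracellular cAMP was quantified by HTRF after a 30 min room-temperature exposure of hRXFP1-HEK293 cells (1500/well) to compound at 0.010 nM–50 µM final, 2% DMSO. Buffer was HBSS with 20 mM HEPES, 0.05% BSA and 0.5 mM IBMX; values came from a 4-parameter logistic fit.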

SMILES | EC50 [µM]
COCCN1CCc2cc(OC)c(C(=O)N[C@H]3[C@@H](C(=O)Nc4ccc(F)c(C(F)(F)F)c4)[C@H]4CC[C@@H]3/C4=C\C3CC3)cc2C1 [Example 87, N-[(1R,2R,3S,4R)-7-(cyclopropyl-methylidene)-3-{[4-fluoro-3-(trifluoromethyl)phenyl]carbamoyl}bicyclo[2.2.1]heptan-2-yl]-6-methoxy-2-(2-methoxyethyl)-1,2,3,4-tetrahydro-isoquinoline-7-carboxamide] | 0.63
COc1ncc(-c2cc(C(=O)O)ccc2F)nc1C(=O)N[C@@H]1C2CCC(C2=C(C)C)[C@@H]1C(=O)Nc1ccc(F)c(C(F)(F)F)c1 (stereo partly drawn) [Example 24, 4-Fluoro-3-(6-{[(2R,3S)-3-{[4-fluoro-3-(trifluoromethyl)phenyl]carbamoyl}-7-(propan-2-ylidene)bicyclo [2.2.1]heptan-2-yl]carbamoyl}-5-methoxypyrazin-2-yl)benzoic acid] | 1
COc1ncc(CCCO)cc1C(=O)N[C@@H]1C2CCC(/C2=C/C(F)(F)F)[C@@H]1C(=O)Nc1ccc(F)c(C(F)(F)F)c1 (stereo partly drawn) [Example 50, N-[(2R,3S,7Z)-3-{[4-fluoro-3-(trifluoromethyl)phenyl]carbamoyl}-7-(2,2,2-trifluoroethylidene)bicyclo[2.2.1]heptan-2-yl]-5-(3-hydroxypropyl)-2-methoxypyridine-3-carboxamide] | 0.129
COc1ccc(-c2cc([C@H](OC(=O)Nc3ccccc3)C(F)(F)F)ccc2F)nc1C(=O)N[C@@H]1C2CCC(/C2=C/C(F)(F)F)[C@@H]1C(=O)Nc1ccc(F)c(C(F)(F)F)c1 (stereo partly drawn) [Example 39, (1S)-2,2,2-trifluoro-1-14-fluoro-3-(6-{[(2R,3S,72)-3-{[4-fluoro-3-(trifluoromethyl)phenyl]carbamoyl}-7-(2,2,2-trifluoro-ethylidene)bicyclo[2. 2.1]heptan-2-yl]carbamoyl}-5-methoxypyridin-2-yl)phenyl]ethyl N-phenylcarbamate] | 0.11
COc1ncc(-c2cc(C(=O)O)ccc2F)cc1C(=O)N[C@@H]1C2CCC(C2=C(C)C)[C@@H]1C(=O)Nc1ccc(F)c(C(F)(F)F)c1 (stereo partly drawn) [Example 21, 4-fluoro-3-(5-{[(2R,3S)-3-{[4-fluoro-3-(trifluoromethyl)phenyl]carbamoyl}-7-(propan-2-ylidene)bicyclo[2.2.1]heptan-2-yl]carbamoyl}-6-methoxypyridin-3-yl)benzoic acid] | 0.08
COc1ncc(C2=NOC3COCC23)cc1C(=O)N[C@H]1[C@@H](C(=O)Nc2ccc(F)c(C(F)(F)F)c2)[C@H]2CC[C@@H]1/C2=C\C1CC1 (single isomer, unassigned) [Example 60] | 0.21
COc1cscc1C(=O)N[C@@H]1C2CCC(C2=C(C)C)[C@@H]1C(=O)Nc1ccc(F)c(C(F)(F)F)c1 (stereo partly drawn) [Example 9, N-[(2R,3S)-3-{[4-fluoro-3-(trifluoromethyl)phenyl]carbamoyl}-7-(propan-2-ylidene)bicyclo [2.2.1]heptan-2-yl]-4-methoxy-thiophene-3-carboxamide] | 1.4

The next molecules have a lower EC50 than those just listed; values first:

EC50 [µM] | SMILES
0.033 | COc1ncc(-c2cc(C(=O)O)ccc2F)cc1C(=O)N[C@@H]1C2CCC(/C2=C/c2ccccc2)[C@@H]1C(=O)Nc1ccc(F)c(C(F)(F)F)c1 (stereo partly drawn) [Example 25, 4-Fluoro-3-(5-{[(2R,3S,7Z)-3-{[4-fluoro-3-(trifluoromethyl)phenyl]carbamoyl}-7-(phenylmethylidene)bicyclo[2.2.1]heptan-2-yl]carbamoyl}-6-methoxypyridin-3-yl)benzoic acid]
0.009 | COc1ncc(C2=NOC3CC(C(OC(=O)NC4CCC4)C4CC4)CC23)cc1C(=O)N[C@@H]1C2CCC(/C2=C/C2CC(F)(F)C2)[C@@H]1C(=O)Nc1ccc(F)c(C(F)(F)F)c1 (stereo partly drawn) [Example 161, cyclopropyl[3-(5-{[(2R,3S,7Z)-7-[(3,3-difluorocyclobutyl)methylidene]-3-{[4-fluoro-3-(trifluoromethyl)phenyl]carbamoyl}bicyclo[2.2.1]heptan-2-yl]carbamoyl}-6-methoxypyridin-3-yl)-3aH,4H,5H,6H, 6aH-cyclopenta[d][1,2]oxazol-5-yl]methyl N-cyclobutylcar-bamate]
0.0081 | O=C(Nc1ccccc1)O[C@@H](c1ccc(F)c(-c2cnc(OCCO)c(C(=O)N[C@H]3[C@@H](C(=O)Nc4ccc(F)c(C(F)(F)F)c4)[C@H]4CC[C@@H]3/C4=C\C(F)(F)F)c2)c1)C(F)(F)F [Example 42, (S)-2,2,2-trifluoro-1-(4-fluoro-3-(5-(((1R,2R,3S,4R,Z)-3-((4-fluoro-3-(trifluoromethyl)phenyl)carbamoyl)-7-(2,2,2-trifluoroethylidene)bicyclo[2.2.1]heptan-2-yl)carbamoyl)-6-(2-hydroxyethoxy)pyridin-3-yl)phenyl)ethyl phenylcarbamate]
0.0038 | CC1(C)Cc2cc(C3=NOC4CCOCC34)cc(C(=O)N[C@H]3[C@@H](C(=O)Nc4ccc(F)c(C(F)(F)F)c4)[C@H]4CC[C@@H]3/C4=C\C3CC3)c2O1 (stereo partly drawn) [Example 147, 5-{3aH,4H,6H, 7H,7aH-pyrano[3,4-d][1,2]oxazol-3-yl}-N-[(1R,2R,3S,4R,7Z)-7-(cyclopropyl-methylidene)-3-{[4-fluoro-3-(trifluoromethyl)phenyl]carbamoyl}bicyclo[2.2.1]heptan-2-yl]-2,2-dimethyl-2,3-dihydro-1-benzofuran-7-carboxamide]
0.003 | CC1(C)Cc2cc(C3=NOC4COCC34)cc(C(=O)N[C@@H]3C4CCC(/C4=C/C4CC4)[C@@H]3C(=O)Nc3ccc(F)c(C(F)(F)F)c3)c2O1 (stereo partly drawn) [Example 145, 5-{3aH,4H,6H,6aH-furo[3,4-d][1,2]oxazol-3-yl}-N-[(1R,2R,3S, 4R,7Z,)-7-(cyclopropyl-methylidene)-3-{[4-fluoro-3-(trifluoromethyl)phenyl]carbamoyl}bicyclo[2.2.1]heptan-2-yl]-2,2-dimethyl-2,3-dihydro-1-benzofuran-7-carboxamide]
0.0025 | COc1ncc(-c2cc([C@H](OC(=O)NC3CCOCC3)C(F)(F)F)ccc2F)cc1C(=O)N[C@@H]1C2CCC(/C2=C/C2CC2)[C@@H]1C(=O)Nc1ccc(F)c(C(F)(F)F)c1 (stereo partly drawn) [Example 185, (1S)-1-[3-(5-{[(2R,3S,7Z)-7-(cyclopropyl-methylidene)-3-{[4-fluoro-3-(trifluoromethyl)phenyl]carbamoyl}bicyclo[2.2.1]heptan-2-yl]carbamoyl}-6-methoxypyridin-3-yl)-4-fluorophenyl]-2,2,2-trifluoroethyl N-(oxan-4-yl)carbamate]
0.0016 | COc1ncc(C2=NOC3CC(CO)CC23)cc1C(=O)N[C@H]1[C@@H](C(=O)Nc2ccc(F)c(C(F)(F)F)c2)[C@H]2CC[C@@H]1/C2=C\C1CCCC1 (stereo partly drawn) [Example 101, N-((1R,2R,3S,4R,Z)-7-(cyclopentyl-methylene)-3-((4-fluoro-3-(trifluoromethyl)phenyl)carbamoyl)bicyclo[2.2.1]heptan-2-yl)-5-(5-(hydroxymethyl)-3a,5,6,6a-tetrahydro-4H-cyclopenta[d]isoxazol-3-yl)-2-methoxynicotinamide]
0.0005 | COc1ncc(-c2cc([C@H](OC(=O)NC3CCC3)C(F)(F)F)ccc2F)cc1C(=O)N[C@H]1[C@@H](C(=O)N[C@H](C)C2(C)CC2)[C@H]2CC[C@@H]1/C2=C\C1CC(F)(F)C1 [Example 188, (1S)-1-[3-(5-{[(1R,2R,3S,4R,7Z)-7-[(3,3-difluorocyclobutyl)methylidene]-3-{[(1R)-1-(1-methylcyclopropyl)ethyl]carbamoyl}bicyclo[2.2.1]heptan-2-yl]carbamoyl}-6-methoxypyridin-3-yl)-4-fluorophenyl]-2,2,2-trifluoroethyl N-cyclobutyl-carbamate]

Source: patent US20250011288A1 (BRISTOL-MYERS SQUIBB COMPANY, priority 2021, published 2025)
